Columns and labels:
[1] = tested on: bronchoalveolar lavage (BAL) cells; conditions: patients with amiodarone pulmonary toxicity; Martin and Standing 1988; cited from earlier work
rats [2] = conditions: rat, in vivo
Experimental: The relationship between amiodarone, azithromycin, or citalopram exposure and the occurrence of drug-induced phospholipidosis was investigated in Fisher rats. Rats were treated with amiodarone (50 mg/kg/day), azithromycin (100 mg/kg/day), citalopram (90 mg/kg/day), or no drug for 4-weeks. Urine samples were collected from each animal and prepared for analysis using a liquid/liquid extraction method. The urine samples (200 μl urine per rat) were mixed with cold 3:1 chloroform/methanol (v/v) (400 μl) and vortexed before adding 0.1% formic acid (aq.) (100 μl). The samples were vortexed again, allowed to sit for 5 min, and centrifuged for 15 min. The bottom (organic) layer was carefully removed and concentrated to dryness. The samples were reconstituted to 30 μl with 0.05% formic acid in 2:1 acetonitrile/methanol (v/v).
The molecular profile of each urine sample was acquired using liquid chromatography coupled to mass spectrometry (LC/MS). Injections were made onto a 150×2.00 mm Synergi Hydro-RP column (Phenomenex, Torrance, Calif., USA) using an a Gilson 235 auto-injector (Gilson, Inc., Middletown, Wis., USA) and an Agilent 1100 binary pump (Agilent Technologies, Palo Alto, Calif., USA). Mobile phase A was 0.25% ammonium hydroxide, 0.05% formic acid in 88:12 methanol/water (v/v). Mobile phase B was 0.25% ammonium hydroxide, 0.05% formic acid in 80:20 methanol/hexane (v/v). […]

rats [3] = test: Urinary di-C22:6-BMP levels during 17-day azithromycin treatment (Example 4); format: in vivo, rat; conditions: azithromycin 150 mg/kg/day, all isoforms (FIG. 9)
Experimental: The methods described above were used to evaluate the tissue phospholipidosis induced by azithromycin (150 mg/kg/day) in rats over a 17-day period. Urine samples were collected from the rats on Days 11 and 17 and subjected to the assay. […] On Day 11, the mean level (n=5 rats per group) of di-C22:6-BMP in urine was increased by 2.6-fold in the rats treated with azithromycin compared to the controls. On Day 17, the mean level (n=5 rats per group) of di-C22:6-BMP in urine was increased approximately by 4.5-fold in the azithromycin treated rats compared to the control rats.

level of di-22:6-PG in urine (rats [2])	increase of mean level of di-C22:6-BMP in urine compared to controls, Day 11 (rats [3]; Day 11, n=5 rats per group) [fold]	increase of mean level of di-C22:6-BMP in urine compared to controls, Day 17 (rats [3]; Day 17, n=5 rats per group) [fold]	Compound	increase in total BMP in BAL cells compared to control subjects [1]	increase in total PG in BAL cells compared to control subjects [1]
increased			CCCCc1oc2ccccc2c1C(=O)c1cc(I)c(OCCN(CC)CC)c(I)c1 [amiodarone]	+64%	+1866%
	2.6	~4.5	CC[C@H]1OC(=O)[C@H](C)[C@@H](O[C@H]2C[C@@](C)(OC)[C@@H](O)[C@H](C)O2)[C@H](C)[C@@H](O[C@@H]2O[C@H](C)C[C@H](N(C)C)[C@H]2O)[C@](C)(O)C[C@@H](C)CN(C)[C@H](C)[C@@H](O)[C@]1(C)O [azithromycin]		
not			CCN(CC)CCCC(C)Nc1ccnc2cc(Cl)ccc12 (stereo not drawn) [chloroquine]		
